In PMC5261566, “The AMPK Activator A769662 Blocks Voltage-Gated Sodium Channels: Discovery of a Novel Pharmacophore with Potential Utility for Analgesic Development” (PLoS ONE, 2017) one finds inhibition data, which are given here for 1 compound.

This assay addresses T1, Nav1.7 (hNav1.7) (Homo sapiens, UniProt Q15858, F1748A/Y1755A).
T1 construct: gene SCN9A; F1737A/Y1744A mutant hNav1.7 transiently expressed in HEK293 cells
In words: whole-cell patch clamp, % reduction of peak current at […]. Format: cell-based. The settings on record: read-out: % block at 200 μM. For orientation: Patch clamp records ionic current or voltage across a cell membrane.

T1 sequence (Q15858 whole entry F1748A/Y1755A): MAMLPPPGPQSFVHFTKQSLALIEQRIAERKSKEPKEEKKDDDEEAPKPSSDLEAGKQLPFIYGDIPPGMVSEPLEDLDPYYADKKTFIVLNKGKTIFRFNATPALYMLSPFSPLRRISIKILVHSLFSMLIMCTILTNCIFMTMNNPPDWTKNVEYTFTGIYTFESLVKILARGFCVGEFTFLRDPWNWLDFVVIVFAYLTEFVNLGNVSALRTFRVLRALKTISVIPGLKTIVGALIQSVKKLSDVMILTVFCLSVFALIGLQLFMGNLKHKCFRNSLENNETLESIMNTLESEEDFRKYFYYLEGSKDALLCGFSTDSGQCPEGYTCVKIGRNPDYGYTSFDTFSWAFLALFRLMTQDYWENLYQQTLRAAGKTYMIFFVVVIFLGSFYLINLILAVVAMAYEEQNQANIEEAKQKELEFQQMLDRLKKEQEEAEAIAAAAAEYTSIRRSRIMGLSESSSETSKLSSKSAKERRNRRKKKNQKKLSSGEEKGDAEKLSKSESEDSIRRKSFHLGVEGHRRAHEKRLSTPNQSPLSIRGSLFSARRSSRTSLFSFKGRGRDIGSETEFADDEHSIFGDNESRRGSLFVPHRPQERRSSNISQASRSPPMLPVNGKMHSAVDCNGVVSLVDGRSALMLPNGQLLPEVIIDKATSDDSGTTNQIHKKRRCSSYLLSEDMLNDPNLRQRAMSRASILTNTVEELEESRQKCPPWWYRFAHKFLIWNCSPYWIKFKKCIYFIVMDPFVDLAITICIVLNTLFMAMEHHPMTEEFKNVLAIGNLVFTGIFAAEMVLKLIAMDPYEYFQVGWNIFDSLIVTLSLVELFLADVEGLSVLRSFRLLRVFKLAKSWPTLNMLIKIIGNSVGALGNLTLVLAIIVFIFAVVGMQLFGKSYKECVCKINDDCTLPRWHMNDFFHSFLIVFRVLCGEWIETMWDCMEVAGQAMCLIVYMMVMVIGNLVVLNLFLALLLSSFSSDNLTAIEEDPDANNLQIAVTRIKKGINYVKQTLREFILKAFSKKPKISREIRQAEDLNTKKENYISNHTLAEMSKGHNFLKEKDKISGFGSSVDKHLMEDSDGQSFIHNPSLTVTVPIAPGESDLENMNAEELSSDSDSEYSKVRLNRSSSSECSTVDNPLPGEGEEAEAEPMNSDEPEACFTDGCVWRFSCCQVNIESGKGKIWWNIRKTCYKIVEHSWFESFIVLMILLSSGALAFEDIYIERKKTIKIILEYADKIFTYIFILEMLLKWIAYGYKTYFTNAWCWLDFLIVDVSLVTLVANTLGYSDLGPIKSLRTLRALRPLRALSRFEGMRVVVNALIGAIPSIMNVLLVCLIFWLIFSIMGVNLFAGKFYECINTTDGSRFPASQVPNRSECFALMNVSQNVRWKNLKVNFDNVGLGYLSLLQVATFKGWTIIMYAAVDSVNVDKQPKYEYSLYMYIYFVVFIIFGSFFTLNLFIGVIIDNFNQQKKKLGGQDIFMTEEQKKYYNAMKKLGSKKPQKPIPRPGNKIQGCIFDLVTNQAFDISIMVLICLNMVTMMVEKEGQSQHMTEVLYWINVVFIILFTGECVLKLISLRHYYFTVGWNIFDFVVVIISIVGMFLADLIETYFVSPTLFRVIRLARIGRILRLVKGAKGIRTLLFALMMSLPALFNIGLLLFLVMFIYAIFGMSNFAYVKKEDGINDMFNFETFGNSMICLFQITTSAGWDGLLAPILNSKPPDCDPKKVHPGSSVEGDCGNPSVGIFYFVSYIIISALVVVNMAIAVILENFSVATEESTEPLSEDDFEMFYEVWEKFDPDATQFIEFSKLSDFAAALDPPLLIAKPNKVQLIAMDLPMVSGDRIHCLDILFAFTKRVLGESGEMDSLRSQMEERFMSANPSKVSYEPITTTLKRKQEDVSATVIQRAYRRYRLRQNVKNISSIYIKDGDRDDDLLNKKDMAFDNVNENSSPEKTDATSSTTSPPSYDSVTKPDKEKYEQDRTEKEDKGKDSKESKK

`N#Cc1c(O)c2c(-c3ccc(-c4ccccc4O)cc3)csc2[nH]c1=O` [A769662]: the inhibition at 200 µM came out at 38%.
